Results as given in patent US20120035218A1, “PEST CONTROL COMPOSITION” (SUMITOMO CHEMICAL COMPANY, LIMITED, priority 2010, published 2012).

System: cat fleas
Assay: Cat flea emergence inhibition from eggs on treated flea-rearing medium
Assay type: in vivo
Settings: 20 flea eggs, after approximately three weeks, corrected against acetone control
Experimental: Six gram quantities of medium for rearing fleas (mixed to make sand/powdered feed/dry yeast/dry bovine blood=80/16/3/1 wt %) were placed in vials. Acetone solutions were prepared so that the hydrazide compounds and pyriproxyfen would have the concentrations (wt % versus the medium) shown in Table 2 in the treated medium for rearing fleas. The medium was treated by 1.0 mL of the acetone solution, stirred until homogeneous, and dried. Filter paper (TOYO No. 2; 3.8 cm in diameter) was placed on aluminum dishes 3.8 cm in diameter, and 20 flea eggs were placed on the filter paper using a suitably moistened brush. A quantity of 1.0 g of the dried, treated medium was placed evenly on top of the filter paper on which the eggs rested, and the aluminum dishes were placed in resin petri dishes and stored at a temperature of 26° C. and humidity of 85-95%. Medium that had been treated only by acetone was also processed by the same method as a control group. After approximately three weeks, the emergence of the cat fleas was examined, and the emergence inhibition rate was calculated by the following formula.
Corrected emergency inhibition rate=(C−T)÷C×100
C: Emergence rate of untreated control group
T: Emergence rate of treated group

[1] = hydrazide compound 0.4 × 10^−4 % in combination with pyriproxyfen 10^−8 % (wt % versus the medium)
[2] = hydrazide compound alone, 0.4 × 10^−4 % (wt % versus the medium)

| SMILES | Emergence inhibition rate (%) [1] | Emergence inhibition rate (%) [2] | Emergence inhibition rate (%) (pyriproxyfen alone, 10^−8 % (wt % versus the medium)) |
| --- | --- | --- | --- |
| O=C(CCC(F)(F)F)NNc1cc(C2=NOC(c3cc(Cl)cc(Cl)c3)(C(F)(F)F)C2)ccc1Cl (centres unmarked) [Hydrazide compound (17), N′-{5-[5-(3,5-dichlorophenyl)-5-trifluoromethyl-4,5-dihydroisoxazol-3-yl]-2-chlorophenyl}-4,4,4-trifluorobutyrohydrazide] | 63% | 6.3% |  |
| CN(NC(=O)CCC(F)(F)F)c1cc(C2=NOC(c3cc(Cl)cc(Cl)c3)(C(F)(F)F)C2)ccc1Cl (centres unmarked) [Hydrazide compound (31), N′-methyl-N′-{2-chloro-5-[5-(3,5-dichlorophenyl)-5-trifluoromethyl-4,5-dihydroisoxazol-3-yl]phenyl}-4,4,4-trifluorobutyrohydrazide] | 86% | 34% |  |
| CC(COc1ccc(Oc2ccccc2)cc1)Oc1ccccn1 (centres unmarked) [Pyriproxyfen, 4-phenoxyphenyl=2-(pyridyloxy)propyl=ether, reference compound] |  |  | 4.0% |
